Assay results as given in patent publication US9120774B2 (University of Kansas, priority 2009, dated 2015).
Read-outs that look alike come from different tables or passages of the source. One block for each compound: values may come before it.

Key:
[1] = tested on: SkBr3 (Her2 overexpressing breast cancer cells); assay: Anti-proliferation activity against SkBr3 cells (MTS/PMS); format: cell-based; conditions: read-out: IC50, SKBr3
Method: (§1) Upon completion of synthesis of library of compounds in Examples 23 and 24, the compounds were evaluated for anti-proliferative activity against SkBr3 (Her2 overexpressing breast cancer cells), MCF-7 (estrogen receptor positive breast cancer cells), HCT-116 (colon cancer cells characterized by wild-type p53), PL45 (pancreatic cancer cells), LNCaP (androgen sensitive prostate cancer cells) and PC-3 (androgen independent prostate cancer cells) cell lines.
(§2) Cells were maintained in a 1:1 mixture of Advanced DMEM/F12 (Gibco) supplemented with non-essential amino acids, L-glutamine (2 mM), streptomycin (500 ng/mL), penicillin (100 units/mL), and 10% FBS. Cells were grown to confluence in a humidified atmosphere (37° C., 5% CO2), seeded (2000/well, 100 μl) in 96-well plates, and allowed to attach overnight. Compound or GDA at varying concentrations in DMSO (1% DMSO final concentration) was added, and cells were returned to the incubator for 72 hours. At 72 hours, the number of viable cells was determined using an MTS/PMS cell proliferation kit (Promega) per the manufacturer's instructions. Cells incubated in 1% DMSO were used at 100% proliferation, and values were adjusted accordingly. IC50 values were calculated from separate experiments performed in triplicate using GraphPad Prism.
as §2, with “μg/mL),” for “ng/mL),”, “μL)” for “μl)”

[2] = tested on: MCF-7 (estrogen receptor positive breast cancer cells); assay: Anti-proliferation activity against MCF-7 cells (MTS/PMS); format: cell-based
Method: as §1, §2
as §2, with “μg/mL),” for “ng/mL),”, “μL)” for “μl)”

[3] = Table 19, 7-oxyalkylamino and 7-oxypiperidinyl analogues
[4] = Table 19, 7-oxyalkylamino and 7-oxypiperidinyl analogues, read-out: IC50, MCF-7
[5] = Homo sapiens, SK-BR-3, Table 21, substituted indole-2-carboxamide analogues with noviose replacements
[6] = Homo sapiens, MCF7, Table 21, substituted indole-2-carboxamide analogues with noviose replacements, read-out: IC50, MCF-7
[7] = Homo sapiens, SK-BR-3, Table 19, 7-oxyalkylamino and 7-oxypiperidinyl analogues
[8] = Homo sapiens, MCF7, Table 19, 7-oxyalkylamino and 7-oxypiperidinyl analogues, read-out: IC50, MCF-7
[9] = Homo sapiens, SK-BR-3, Table 18, modified furanose or pyranose noviose replacements
[10] = Homo sapiens, MCF7, Table 18, modified furanose or pyranose noviose replacements, read-out: IC50, MCF7

SMILES: CC(=O)Oc1ccc(C(=O)Nc2cc3ccc(OC4CCCNC4)c(C)c3oc2=O)cc1CC=C(C)C (stereo not shown) [30d, KU-419, 4-(8-methyl-2-oxo-7-(piperidin-3-yloxy)-2H-chromen-3-ylcarbamoyl)-2-(3-methylbut-2-enyl)phenyl acetate]
IC50 [1, 3]: 1540 ± 110 nM
IC50 [2, 4]: 1230 nM

SMILES: CC(C)=CCc1cc(C(=O)Nc2cc3ccc(O[C@@H]4OCCC[C@H]4O)c(C)c3oc2=O)ccc1O [17b, KU-428, 4-Hydroxy-N-(7-((2S,3R)-3-hydroxytetrahydro-2H-pyran-2-yloxy)-8-methyl-2-oxo-2H-chromen-3-yl)-3-(3-methylbut-2-enyl)benzamide]
IC50 [1, 9]: 30000 ± 2070 nM
IC50 [2, 10]: 10200 ± 210 nM

SMILES: CC(C)=CCc1cc(C(=O)Nc2cc3ccc(O[C@@H]4OCC[C@@H](O)[C@H]4O)c(C)c3oc2=O)ccc1O [16b, KU-426, N-(7-((2S,3R,4R)-3,4-dihydroxytetrahydro-2H-pyran-2-yloxy)-8-methyl-2-oxo-2H-chromen-3-yl)-4-hydroxy-3-(3-methylbut-2-enyl)benzamide]
IC50 [1, 9]: 6960 ± 60 nM
IC50 [2, 10]: 13300 ± 210 nM

SMILES: CC(=O)Oc1ccc(C(=O)Nc2cc3ccc(OC4CCN(C)CC4)c(C)c3oc2=O)cc1CC=C(C)C [29a, KU-397, 4-(8-Methyl-7-(1-methylpiperidin-4-yloxy)-2-oxo-2H-chromen-3-ylcarbamoyl)-2-(3-methylbut-2-enyl)phenyl acetate]
IC50 [1, 3]: 1180 ± 200 nM

SMILES: CC(C)=CCc1cc(C(=O)Nc2cc3ccc(O[C@H]4C[C@H](O)CCO4)c(C)c3oc2=O)ccc1O [18a, KU-429, 4-Hydroxy-N-(7-((2S,4R)-4-hydroxytetrahydro-2H-pyran-2-yloxy)-8-methyl-2-oxo-2H-chromen-3-yl)-3-(3-methylbut-2-enyl)benzamide]
IC50 [1, 9]: 5070 ± 230 nM
IC50 [2, 10]: 1340 ± 180 nM

SMILES: CC(=O)Oc1ccc(C(=O)Nc2cc3ccc(OC4CCCN(C)C4)c(C)c3oc2=O)cc1CC=C(C)C (stereo not shown) [29c, KU-417, 4-(8-Methyl-7-(1-methylpiperidin-3-yloxy)-2-oxo-2H-chromen-3-ylcarbamoyl)-2-(3-methylbut-2-enyl)phenyl acetate]
IC50 [1, 3]: 1570 ± 50 nM
IC50 [2, 4]: 1420 ± 20 nM

SMILES: CC(=O)Oc1ccc(C(=O)Nc2cc3ccc(O[C@H]4C[C@@H](O)CO4)c(C)c3oc2=O)cc1CC=C(C)C [20a, KU-432, 4-(7-((2S,4R)-4-Hydroxytetrahydrofuran-2-yloxy)-8-methyl-2-oxo-2H-chromen-3-ylcarbamoyl)-2-(3-methylbut-2-enyl)phenyl acetate]
IC50 [1, 9]: 22200 ± 940 nM
IC50 [2, 10]: > 100000 nM

SMILES: CC(C)=CCc1cc(C(=O)Nc2cc3ccc(O[C@H]4OCC[C@@H](O)[C@H]4O)c(C)c3oc2=O)ccc1O [16a, KU-425, N-(7-((2R,3R,4R)-3,4-dihydroxytetrahydro-2H-pyran-2-yloxy)-8-methyl-2-oxo-2H-chromen-3-yl)-4-hydroxy-3-(3-methylbut-2-enyl)benzamide]
IC50 [1, 9]: 10680 ± 50 nM
IC50 [2, 10]: 10040 ± 30 nM

SMILES: CC(=O)Oc1ccc(C(=O)Nc2cc3ccc(OCCN(C)C)c(C)c3oc2=O)cc1CC=C(C)C [29e, KU-421, 4-(7-(2-(Dimethylamino)ethoxy)-8-methyl-2-oxo-2H-chromen-3-ylcarbamoyl)-2-(3-methylbut-2-enyl)phenyl acetate]
IC50 [1, 3]: 4760 ± 520 nM
IC50 [2, 4]: 1320 nM

SMILES: CNCCOc1ccc2cc(NC(=O)c3ccc(OC(C)=O)c(CC=C(C)C)c3)c(=O)oc2c1C [30g, KU-423, 4-(8-methyl-7-(2-(methylamino)ethoxy)-2-oxo-2H-chromen-3-ylcarbamoyl)-2-(3-methylbut-2-enyl)phenyl acetate]
IC50 [1, 3]: 2080 ± 130 nM
IC50 [2, 4]: 910 ± 210 nM

SMILES: CC(=O)Oc1ccc(C(=O)Nc2cc3ccc(O[C@@H]4C[C@@H](O)CO4)c(C)c3oc2=O)cc1CC=C(C)C [20b, KU-433, 4-(7-((2R,4R)-4-Hydroxytetrahydrofuran-2-yloxy)-8-methyl-2-oxo-2H-chromen-3-ylcarbamoyl)-2-(3-methylbut-2-enyl)phenyl acetate]
IC50 [1, 9]: 21500 ± 2280 nM
IC50 [2, 10]: 22500 ± 400 nM

SMILES: CC(=O)Oc1ccc(C(=O)Nc2cc3ccc(O[C@@H]4OC[C@H](O)[C@@H]4O)c(C)c3oc2=O)cc1CC=C(C)C [19, KU-431, 4-(7-((2S,3S,4S)-3,4-Dihydroxytetrahydrofuran-2-yloxy)-8-methyl-2-oxo-2H-chromen-3-ylcarbamoyl)-2-(3-methylbut-2-enyl)phenyl acetate]
IC50 [1, 9]: 14400 ± 520 nM
IC50 [2, 10]: 14300 ± 400 nM

SMILES: CC(=O)Oc1ccc(C(=O)Nc2cc3ccc(OC4CCNCC4)c(C)c3oc2=O)cc1CC=C(C)C [30b, KU-415, 4-(8-methyl-2-oxo-7-(piperidin-4-yloxy)-2H-chromen-3-ylcarbamoyl)-2-(3-methylbut-2-enyl)phenyl acetate]
IC50 [1, 3]: 1530 ± 140 nM
IC50 [2, 4]: 770 ± 270 nM

SMILES: CC(=O)Oc1ccc(C(=O)Nc2cc3ccc(OCCCN(C)C)c(C)c3oc2=O)cc1CC=C(C)C [29f, KU-406, 4-(7-(3-(Dimethylamino)propoxy)-8-methyl-2-oxo-2H-chromen-3-ylcarbamoyl)-2-(3-methylbut-2-enyl)phenyl acetate]
IC50 [1, 3]: 1180 ± 30 nM
IC50 [2, 4]: 460 ± 190 nM

SMILES: CC(C)=CCc1cc(C(=O)Nc2cc3ccc(O[C@H]4OCCC[C@H]4O)c(C)c3oc2=O)ccc1O [17a, KU-427, 4-Hydroxy-N-(7-((2R,3R)-3-hydroxytetrahydro-2H-pyran-2-yloxy)-8-methyl-2-oxo-2H-chromen-3-yl)-3-(3-methylbut-2-enyl)benzamide]
IC50 [1, 9]: 7870 ± 40 nM
IC50 [2, 10]: 6450 ± 130 nM

Further lines, results first:

IC50 [1, 5]: 350 ± 210 nM
IC50 [2, 6]: 90 ± 30 nM
SMILES: Cc1c(OC2CCN(C)CC2)ccc2cc(NC(=O)c3cc4cc(Cl)ccc4[nH]3)c(=O)oc12 [KU-380]

IC50 [1, 7]: 1350 ± 380 nM
IC50 [2, 8]: 440 ± 20 nM
SMILES: CC(C)=CCc1cc(C(=O)Nc2cc3ccc(OCCCN(C)C)c(C)c3oc2=O)ccc1O [31f, KU-407, N-(7-(3-(Dimethylamino)propoxy)-8-methyl-2-oxo-2H-chromen-3-yl)-4-hydroxy-3-(3-methylbut-2-enyl)benzamide]

IC50 [1, 7]: 350 ± 80 nM
IC50 [2, 8]: 90 nM
SMILES: CC(C)=CCc1cc(C(=O)Nc2cc3ccc(OC4CCN(C)CC4)c(C)c3oc2=O)ccc1OCCCN(C)C [KU-457]

IC50 [1, 7]: 850 ± 90 nM
IC50 [2, 8]: 470 ± 100 nM
SMILES: CC(C)=CCc1cc(C(=O)Nc2cc3ccc(OC4CCNCC4)c(C)c3oc2=O)ccc1O [31b, KU-416, 4-Hydroxy-N-(8-methyl-2-oxo-7-(piperidin-4-yloxy)-2H-chromen-3-yl)-3-(3-methylbut-2-enyl)benzamide]

IC50 [1, 5]: 510 ± 110 nM
IC50 [2, 6]: 4950 ± 450 nM
SMILES: COc1cc2cc(NC(=O)c3cc4cc(Cl)ccc4[nH]3)c(=O)oc2c(C)c1OC1CCN(C)CC1 [KU-386]

IC50 [1, 7]: 2110 ± 580 nM
IC50 [2, 8]: 790 ± 110 nM
SMILES: CC(C)=CCc1cc(C(=O)Nc2cc3ccc(OC4CCCNC4)c(C)c3oc2=O)ccc1O (stereo not shown) [31d, KU-420, 4-Hydroxy-N-(8-methyl-2-oxo-7-(piperidin-3-yloxy)-2H-chromen-3-yl)-3-(3-methylbut-2-enyl)benzamide]

IC50 [1, 5]: 500 ± 10 nM
IC50 [2, 6]: 1540 ± 150 nM
SMILES: COc1cc2cc(NC(=O)c3cc4cc(Cl)ccc4[nH]3)c(=O)oc2c(C)c1OCCCN(C)C [KU-395]

IC50 [1, 7]: 1090 ± 100 nM
SMILES: CC(C)=CCc1cc(C(=O)Nc2cc3ccc(OC4CCN(C)CC4)c(C)c3oc2=O)ccc1O [31a, KU-398, 4-Hydroxy-N-(8-methyl-7-(1-methylpiperidin-4-yloxy)-2-oxo-2H-chromen-3-yl)-3-(3-methylbut-2-enyl)benzamide]

IC50 [1, 7]: 52700 nM
IC50 [2, 8]: 9450 ± 220 nM
SMILES: CC(C)=CCc1cc(C(=O)Nc2cc3ccc(OCCN(C)C)c(C)c3oc2=O)ccc1O [31e, KU-422, N-(7-(2-(Dimethylamino)ethoxy)-8-methyl-2-oxo-2H-chromen-3-yl)-4-hydroxy-3-(3-methylbut-2-enyl)benzamide]

IC50 [1, 7]: 290 nM
IC50 [2, 8]: 90 nM
SMILES: COc1c(OC2CCN(C)CC2)ccc2cc(NC(=O)c3ccc(OCCN(C)C)c(CC=C(C)C)c3)c(=O)oc12 [KU-459]

IC50 [1, 7]: 10100 ± 170 nM
IC50 [2, 8]: 4690 ± 160 nM
SMILES: CC(C)=CCc1cc(C(=O)Nc2cc3ccc(OC4CCCN(C)C4)c(C)c3oc2=O)ccc1O (stereo not shown) [31c, KU-418, 4-Hydroxy-N-(8-methyl-7-(1-methylpiperidin-3-yloxy)-2-oxo-2H-chromen-3-yl)-3-(3-methylbut-2-enyl)benzamide]

IC50 [1, 7]: 1330 ± 10 nM
IC50 [2, 8]: 750 ± 120 nM
SMILES: CNCCOc1ccc2cc(NC(=O)c3ccc(O)c(CC=C(C)C)c3)c(=O)oc2c1C [31g, KU-424, 4-Hydroxy-N-(8-methyl-7-(2-(methylamino)ethoxy)-2-oxo-2H-chromen-3-yl)-3-(3-methylbut-2-enyl)benzamide]
